Assay results: patent publication US7741326B2, “Indole and benzofuran 2-carboxamide derivatives and uses thereof” (Roche Palo Alto LLC, priority 2006, dated 2010)

Experiments:
[1] = target: T1, recombinant human 5-HT2A receptor (Homo sapiens, UniProt P28223); experiment: Radioligand binding, [3H]Ketanserin competition in CHO-K1 cell membranes; details: [3H]Ketanserin displacement, pH 7.4 at 32° C., read-out: pKi for the 5-HT2A receptor (converted)
T1 construct: expressed in transfected cells
Procedure: (§1) The binding activity of compounds of this invention in vitro was determined as follows. Duplicate determinations of 5-HT6 ligand affinity were made by competing for binding of [^3H]LSD in cell membranes derived from HEK293 cells stably expressing recombinant human 5-HT6 receptor. Duplicate determinations of 5-HT2A ligand affinity were made by competing for binding of [^3H]Ketanserin (3-(2-(4-(4-fluorobenzoyl)piperidinol)ethyl)-2,4(1H,3H)-quinazolinedione) in cell membranes derived from CHO-Ki cells stably expressing recombinant human 5-HT2A receptor. Membranes were prepared from HEK 293 cell lines by the method described by Monsma et al., Molecular Pharmacology, Vol. 43 pp. 320-327 (1993), and from CHO-K1 cell lines as described by Bonhaus et al., Br J Pharmacol. June; 115(4):622-8 (1995).
(§2) For estimation of affinity at the 5-HT6 receptor, all determinations were made in assay buffer containing 50 mM Tris-HCl, 10 mM MgSO4, 0.5 mM EDTA, 1 mM ascorbic acid, pH 7.4 at 37° C., in a 250 microliter reaction volume. […]
(§3) Assay tubes containing [^3H] […] LSD or [^3H]Ketanserin were determined as radioactive counts per minute using Packard TopCount.
(§4) Displacement of [^3H]LSD or [^3H]Ketanserin from the binding sites was quantified by fitting concentration-binding data to a 4-parameter logistic equation: […]

[2] = target: T2, recombinant human 5-HT6 receptor (Homo sapiens, UniProt P50406); experiment: Radioligand binding, [3H]LSD competition in HEK293 cell membranes; details: [3H]LSD displacement, pH 7.4 at 37° C., read-out: pKi for the 5-HT6 receptor (converted)
T2 construct: expressed in transfected cells
T2 sequence (P50406 whole entry): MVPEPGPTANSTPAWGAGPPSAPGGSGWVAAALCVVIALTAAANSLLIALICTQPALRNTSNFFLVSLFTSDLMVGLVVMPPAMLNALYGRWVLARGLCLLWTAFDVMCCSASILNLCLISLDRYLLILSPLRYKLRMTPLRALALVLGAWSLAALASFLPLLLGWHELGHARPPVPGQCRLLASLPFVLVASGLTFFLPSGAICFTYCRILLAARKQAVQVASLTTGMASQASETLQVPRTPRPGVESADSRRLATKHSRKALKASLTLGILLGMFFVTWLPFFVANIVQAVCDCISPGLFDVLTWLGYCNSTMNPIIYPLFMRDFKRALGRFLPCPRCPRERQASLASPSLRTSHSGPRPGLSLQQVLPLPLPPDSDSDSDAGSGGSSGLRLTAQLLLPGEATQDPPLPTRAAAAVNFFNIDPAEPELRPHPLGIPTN
Procedure: as §1, §2, §3, §4

T1 sequence (P28223 whole entry): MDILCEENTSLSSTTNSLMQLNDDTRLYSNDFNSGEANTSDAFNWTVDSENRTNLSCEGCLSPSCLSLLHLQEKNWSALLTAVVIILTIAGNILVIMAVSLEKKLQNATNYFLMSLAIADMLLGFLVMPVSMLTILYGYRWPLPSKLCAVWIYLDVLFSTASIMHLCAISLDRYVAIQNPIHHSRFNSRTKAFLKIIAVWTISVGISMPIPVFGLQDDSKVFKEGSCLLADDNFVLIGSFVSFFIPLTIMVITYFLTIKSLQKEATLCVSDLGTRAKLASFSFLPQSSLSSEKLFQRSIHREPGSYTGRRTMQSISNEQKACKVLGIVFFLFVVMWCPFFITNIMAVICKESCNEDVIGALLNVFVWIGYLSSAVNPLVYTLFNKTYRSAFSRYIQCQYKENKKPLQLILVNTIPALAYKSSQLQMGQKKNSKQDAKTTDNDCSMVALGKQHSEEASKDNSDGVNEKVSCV

Ki [1] [nM]	SMILES	Ki [2] [nM]
~1.23	Cc1cc(N2CCNCC2)c2oc(C(N)=O)c(Cc3cccc(F)c3)c2c1 [Compound 31, 3-(3-Fluoro-benzyl)-5-methyl-7-piperazin-1-yl-benzofuran-2-carboxylic acid amide]	
	CNC(=O)c1cc2c(N3CCNCC3)cccc2n1Cc1cccc(F)c1 [Compound 26, 1-(3-Fluoro-benzyl)-4-piperazin-1-yl-1H-indole-2-carboxylic acid methylamide]	~0.126
